Experimental data from US20230203059A1, “MACROCYCLIC JAK INHIBITOR AND USES THEREOF” (Biopolar Hongye (Guangdong) Pharmaceutical Co. Ltd., priority 2020, published 2023).
Like-named read-outs stand apart in the source and are kept apart here.

Experiments:
Assay type in all cases: biochemical
[1] = target: JAK1 (Homo sapiens, UniProt P23458); experiment: JAK kinase activity, homogeneous time-resolved fluorescence (JAK1 reaction system); settings: ATP 2 μM, JAK1 protein 0.2 ng/μL; read-out: JAK 1 activity
Description: (§1) The activity measurement method of JAK kinase was to use homogeneous time-resolved fluorescence technique. The reaction was performed in 384 shallow well plates with a total reaction volume of 10 μL. The mixture of kinase protein, compound, ATP and substrate was carried out in a reaction buffer of 50 mM Hepes (pH7.0), NaN3 0.02%, BSA 0.01%, 0.1 mM Orthocanadate, 5 mM MgCl2, and 1 mM DTT. After reacting for 1 hour, an antibody capable of recognizing substrate phosphorylation, dye XL-615 and detection buffer (Cisbio) containing EDTA were added to the system. The reaction signal of kinase was detected by PE company's porous plate detector. The parameter settings were excitation light at 320 nm, emission light at 615 nm and 665 nm. The activity of JAK is indirectly reflected by the signal ratio of 665 nm and 615 nm. In the reaction, the background well without enzyme and the total enzyme activity well without compound were set.
(§2) The IC50 value of the compound inhibiting protein was obtained by the formula: Y=100/(1+10^((Log IC50−X)*HillSlope)). In JAK1 reaction system, the concentration of ATP was 2 μM, and the concentration of JAK1 protein was 0.2 ng/μL.

[2] = target: TYK2 (Homo sapiens, UniProt P29597); experiment: JAK kinase activity, homogeneous time-resolved fluorescence (TYK2 reaction system); settings: ATP 2 μM, TYK2 protein 0.2 ng/μL; read-out: TYK 2 activity
Description: as §1, §2
In TYK2 reaction system, the concentration of ATP was 2 μM, and the concentration of TYK2 protein was 0.2 ng/μL.

[3] = target: JAK2 (Homo sapiens, UniProt O60674); experiment: JAK kinase activity, homogeneous time-resolved fluorescence (JAK2 reaction system); settings: ATP 2 μM, JAK2 protein 0.01 ng/μL
Description: as §1, §2
In JAK2 reaction system, the concentration of ATP was 2 μM, and the concentration of JAK2 protein was 0.01 ng/μL.

[4] = target: T1, JAK3 (Homo sapiens, UniProt P52333); experiment: JAK kinase activity, homogeneous time-resolved fluorescence (JAK3 reaction system)
T1 sequence (P52333 1-1124): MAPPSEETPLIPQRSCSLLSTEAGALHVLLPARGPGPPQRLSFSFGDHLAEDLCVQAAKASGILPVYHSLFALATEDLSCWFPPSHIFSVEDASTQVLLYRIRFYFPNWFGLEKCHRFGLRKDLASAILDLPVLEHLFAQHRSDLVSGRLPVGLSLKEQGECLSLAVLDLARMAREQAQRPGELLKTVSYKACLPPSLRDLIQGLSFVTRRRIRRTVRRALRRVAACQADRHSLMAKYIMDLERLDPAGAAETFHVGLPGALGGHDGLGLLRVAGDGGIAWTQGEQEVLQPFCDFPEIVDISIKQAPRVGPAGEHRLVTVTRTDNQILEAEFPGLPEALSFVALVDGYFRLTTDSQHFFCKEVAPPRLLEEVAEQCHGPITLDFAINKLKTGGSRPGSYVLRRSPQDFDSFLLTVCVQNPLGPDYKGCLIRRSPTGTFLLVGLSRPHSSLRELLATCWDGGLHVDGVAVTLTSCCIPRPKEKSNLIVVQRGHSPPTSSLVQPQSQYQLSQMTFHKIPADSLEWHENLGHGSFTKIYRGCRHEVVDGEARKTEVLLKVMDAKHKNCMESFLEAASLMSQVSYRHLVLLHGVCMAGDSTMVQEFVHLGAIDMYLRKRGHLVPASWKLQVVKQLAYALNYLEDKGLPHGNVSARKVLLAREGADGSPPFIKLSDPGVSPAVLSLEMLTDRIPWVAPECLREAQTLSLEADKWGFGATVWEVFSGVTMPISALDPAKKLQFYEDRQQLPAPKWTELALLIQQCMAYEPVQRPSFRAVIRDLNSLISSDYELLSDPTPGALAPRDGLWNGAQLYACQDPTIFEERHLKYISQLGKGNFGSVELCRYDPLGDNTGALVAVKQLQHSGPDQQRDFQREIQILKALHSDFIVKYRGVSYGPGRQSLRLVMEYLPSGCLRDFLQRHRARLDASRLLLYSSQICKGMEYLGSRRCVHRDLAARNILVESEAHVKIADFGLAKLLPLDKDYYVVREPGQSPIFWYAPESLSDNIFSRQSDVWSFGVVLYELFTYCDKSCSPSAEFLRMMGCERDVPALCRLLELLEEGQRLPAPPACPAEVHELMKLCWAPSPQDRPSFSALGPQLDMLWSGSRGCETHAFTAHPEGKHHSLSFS
Description: as §1, with “The reaction was performed in 384 shallow well plates with a total reaction volume of 10 μL.” left out, “After reacting for 1 hour, an antibody capable of recognizing substrate phosphorylation, dye XL-615 and detection buffer (Cisbio) containing EDTA were added to the system.” left out, “set. […]” for “set.”
In JAK3 reaction system, the concentration of ATP was 2 μM, and the concentration of JAK3 protein was 0.04 ng/μL.

[5] = ATP 2 μM, JAK3 protein 0.04 ng/μL, read-out: JAK 3 activity

TYK2, sequence (P29597 whole entry): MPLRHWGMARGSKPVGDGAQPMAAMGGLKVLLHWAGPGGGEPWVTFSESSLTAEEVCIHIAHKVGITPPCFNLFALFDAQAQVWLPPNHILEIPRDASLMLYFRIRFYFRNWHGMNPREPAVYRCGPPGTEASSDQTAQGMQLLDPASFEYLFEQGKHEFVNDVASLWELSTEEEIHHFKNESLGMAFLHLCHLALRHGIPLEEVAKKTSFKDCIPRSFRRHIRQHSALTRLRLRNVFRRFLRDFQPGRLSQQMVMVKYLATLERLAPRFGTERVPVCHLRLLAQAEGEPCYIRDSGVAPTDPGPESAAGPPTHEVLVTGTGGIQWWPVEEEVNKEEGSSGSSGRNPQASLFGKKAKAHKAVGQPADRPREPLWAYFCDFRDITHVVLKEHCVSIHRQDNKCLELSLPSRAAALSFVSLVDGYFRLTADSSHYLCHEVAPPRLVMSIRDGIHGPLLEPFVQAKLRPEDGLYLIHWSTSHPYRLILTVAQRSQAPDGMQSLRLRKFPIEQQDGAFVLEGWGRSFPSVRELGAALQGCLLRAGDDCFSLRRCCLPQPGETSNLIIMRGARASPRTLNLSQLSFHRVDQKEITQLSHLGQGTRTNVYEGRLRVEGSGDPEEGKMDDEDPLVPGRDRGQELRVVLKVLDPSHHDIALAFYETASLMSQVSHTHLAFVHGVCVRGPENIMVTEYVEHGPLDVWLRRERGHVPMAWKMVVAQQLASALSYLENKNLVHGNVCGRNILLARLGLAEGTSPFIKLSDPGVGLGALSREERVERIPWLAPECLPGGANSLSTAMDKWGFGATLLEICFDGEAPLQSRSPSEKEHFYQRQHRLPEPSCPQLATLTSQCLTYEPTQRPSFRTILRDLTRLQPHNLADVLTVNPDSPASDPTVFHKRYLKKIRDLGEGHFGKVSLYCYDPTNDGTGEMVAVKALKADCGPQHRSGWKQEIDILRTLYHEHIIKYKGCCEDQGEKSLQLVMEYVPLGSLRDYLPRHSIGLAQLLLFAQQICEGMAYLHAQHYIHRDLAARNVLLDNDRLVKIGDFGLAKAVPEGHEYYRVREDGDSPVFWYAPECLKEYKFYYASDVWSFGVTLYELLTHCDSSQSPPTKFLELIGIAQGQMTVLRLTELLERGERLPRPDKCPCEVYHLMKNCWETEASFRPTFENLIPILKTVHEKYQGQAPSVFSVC
JAK2, sequence (O60674 whole entry): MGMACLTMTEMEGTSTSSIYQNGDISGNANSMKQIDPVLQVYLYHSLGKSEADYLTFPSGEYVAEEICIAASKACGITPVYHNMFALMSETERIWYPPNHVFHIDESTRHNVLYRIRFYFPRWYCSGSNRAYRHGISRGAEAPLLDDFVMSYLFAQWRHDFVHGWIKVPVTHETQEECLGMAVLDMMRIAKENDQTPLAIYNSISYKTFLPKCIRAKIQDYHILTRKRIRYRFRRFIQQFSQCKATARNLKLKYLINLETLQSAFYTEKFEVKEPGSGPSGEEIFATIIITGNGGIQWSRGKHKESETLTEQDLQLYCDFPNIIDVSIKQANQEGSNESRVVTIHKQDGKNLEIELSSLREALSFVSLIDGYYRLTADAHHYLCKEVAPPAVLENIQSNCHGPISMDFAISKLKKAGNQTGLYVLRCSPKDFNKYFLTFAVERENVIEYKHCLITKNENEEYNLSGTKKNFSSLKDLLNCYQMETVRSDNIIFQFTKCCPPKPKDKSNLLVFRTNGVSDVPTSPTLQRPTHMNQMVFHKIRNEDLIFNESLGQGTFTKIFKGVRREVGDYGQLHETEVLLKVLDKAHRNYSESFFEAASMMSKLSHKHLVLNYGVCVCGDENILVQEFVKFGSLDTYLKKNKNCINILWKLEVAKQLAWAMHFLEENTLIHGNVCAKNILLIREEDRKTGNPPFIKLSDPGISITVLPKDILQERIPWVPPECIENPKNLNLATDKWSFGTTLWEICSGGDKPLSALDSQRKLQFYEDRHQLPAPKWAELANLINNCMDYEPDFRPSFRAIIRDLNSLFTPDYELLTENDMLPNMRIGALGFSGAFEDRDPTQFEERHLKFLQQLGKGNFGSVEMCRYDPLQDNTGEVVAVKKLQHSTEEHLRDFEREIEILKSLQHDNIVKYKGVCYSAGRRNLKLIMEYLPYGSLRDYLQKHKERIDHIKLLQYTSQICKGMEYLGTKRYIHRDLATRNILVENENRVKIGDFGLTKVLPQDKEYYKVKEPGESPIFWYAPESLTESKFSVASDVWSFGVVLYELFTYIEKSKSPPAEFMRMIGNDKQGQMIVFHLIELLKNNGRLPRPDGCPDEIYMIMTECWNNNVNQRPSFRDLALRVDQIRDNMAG
JAK1, sequence (P23458 whole entry): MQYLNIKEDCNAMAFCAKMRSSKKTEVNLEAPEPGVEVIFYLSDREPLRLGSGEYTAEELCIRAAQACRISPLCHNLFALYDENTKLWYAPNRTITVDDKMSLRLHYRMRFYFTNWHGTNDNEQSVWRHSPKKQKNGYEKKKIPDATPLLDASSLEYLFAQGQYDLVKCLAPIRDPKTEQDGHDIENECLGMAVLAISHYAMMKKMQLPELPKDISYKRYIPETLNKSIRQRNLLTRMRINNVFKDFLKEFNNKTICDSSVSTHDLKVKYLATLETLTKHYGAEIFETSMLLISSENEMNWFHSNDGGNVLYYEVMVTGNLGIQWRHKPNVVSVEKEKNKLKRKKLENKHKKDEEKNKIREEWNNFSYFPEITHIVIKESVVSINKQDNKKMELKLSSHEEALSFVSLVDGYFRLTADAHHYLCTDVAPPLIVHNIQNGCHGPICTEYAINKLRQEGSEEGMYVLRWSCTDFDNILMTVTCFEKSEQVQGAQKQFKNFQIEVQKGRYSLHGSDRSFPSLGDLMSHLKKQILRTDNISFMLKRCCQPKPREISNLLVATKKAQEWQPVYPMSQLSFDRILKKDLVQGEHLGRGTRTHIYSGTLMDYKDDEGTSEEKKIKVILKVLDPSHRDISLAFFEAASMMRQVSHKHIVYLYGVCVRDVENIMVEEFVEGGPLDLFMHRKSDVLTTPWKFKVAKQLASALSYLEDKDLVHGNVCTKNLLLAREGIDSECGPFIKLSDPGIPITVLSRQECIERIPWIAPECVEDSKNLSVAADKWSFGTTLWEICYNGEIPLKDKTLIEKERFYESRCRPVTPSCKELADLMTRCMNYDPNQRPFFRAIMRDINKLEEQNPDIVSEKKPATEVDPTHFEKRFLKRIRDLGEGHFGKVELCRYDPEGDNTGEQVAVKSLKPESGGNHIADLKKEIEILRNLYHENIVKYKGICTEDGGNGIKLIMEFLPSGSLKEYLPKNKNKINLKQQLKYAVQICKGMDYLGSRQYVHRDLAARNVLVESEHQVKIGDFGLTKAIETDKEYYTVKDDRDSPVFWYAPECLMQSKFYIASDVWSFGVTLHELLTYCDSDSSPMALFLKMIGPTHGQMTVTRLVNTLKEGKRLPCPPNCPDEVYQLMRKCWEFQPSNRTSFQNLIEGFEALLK

Structure (SMILES)	IC50 [1] [nM]	IC50 [2] [nM]	IC50 [3] [nM]	IC50 [4, 5] [nM]	IC50 [4] [nM]
COc1ccccc1COc1ccc2cc1COCCCCNC(=O)c1ccc(c(N)c1)-c1ccnc(n1)N2 [Example 156, 1^2-amino-4^4-((2-methoxybenzyl)oxy)-6-oxa-3,11-diaza-2(4,2)-pyri-midina-1(1,4),4(1,3)-dibenzena-cyclododecaphan-12-one]	1000 to 10000	> 10000	101 to 1000	11 to 100	–
Nc1cc2ccc1-c1ccnc(n1)Nc1ccc(OCC3CCOC3)c(c1)COCCCCNC2=O (centres unmarked) [Example 125, 1^2-amino-4^4-((tetrahydrofuran-3-yl)methoxy)-6-oxa-3,11-diaza-2(4,2)-pyrimidina-1(1,4),4(1,3)-dibenz-enacyclododecaphan-12-one]	101 to 1000	1000 to 10000	101 to 1000	< 10	–
Cc1cc2ccc1-c1ccnc(n1)Nc1cccc(c1)COCCCCNC2=O [Example 40, 1^2-methyl-6-oxa-3,11-diaza-2(4,2)-pyrimidina-1(1,4),4(1,3)-diben-zenacyclododecaphan-12-one]	1000 to 10000	> 10000	1000 to 10000	101 to 1000	–
CC(C)Oc1ccc2cc1COCC[C@@H](C)CNC(=O)c1ccc(c(N)c1)-c1ccnc(n1)N2 [Example 187, (R)-1^2-amino-4^4-isopropoxy-9-meth-yl-6-oxa-3,11-diaza-2(4,2)-pyri-midina-1(1,4),4(1,3)-dibenzenacyclo-dodecaphan-12-one]	101 to 1000	101 to 1000	11 to 100	11 to 100	–
O=C1NCCCCOCc2cc(ccc2N2CCOCC2)Nc2nccc(n2)-c2ccc1cc2[N+](=O)[O-] [Example 24, 1^2-nitro-4^4-morpholin-6-oxa-3,11-di-aza-2(4,2)-pyrimidina-1(1,4),4(1,3)-dibenzenacyclododecaphan-12-one]	1000 to 10000	1000 to 10000	1000 to 10000	101 to 1000	–
CC1CCNC(=O)c2ccc(c([N+](=O)[O-])c2)-c2ccnc(n2)Nc2ccc(OCC3CCCC3)c(c2)COC1 (centres unmarked) [Example 128, 4^4-(cyclopentylmethoxy)-8-methyl-1^2-nitro-6-oxa-3,11-diaza-2(4,2)-pyrimidina-1(1,4),4(1,3)-dibenzena-cyclododecaphan-12-one]	> 10000	> 10000	> 10000	101 to 1000	–
O=C1NC2CCC(CC2)COCc2cc(ccc2N2CCOCC2)Nc2nccc(n2)-c2ccc1cc2 [Example 80, 4^4-morpholine-6-oxa-3,9-diaza-2(4,2)-pyrimidina-1(1,4),4(1,3)-dibenze-na-8(1,4)-cyclododecaphan-10-one]	1000 to 10000	> 10000	1000 to 10000	1000 to 10000	–
Nc1cc2ccc1-c1ccnc(n1)Nc1ccc(OCc3ccccc3)c(c1)COCCCCNC2=O [Example 118, 1^2-amino-4^4-(benzyloxy)-6-oxa-3,11-diaza-2(4,2)-pyrimidina-1(1,4),4(1,3)-dibenzenacyclododecaphan-12-one]	1000 to 10000	> 10000	1000 to 10000	11 to 100	–
O=C1NCCCCOCc2cc(ccc2OC2CC2)Nc2nccc(n2)-c2ccc1cc2[N+](=O)[O-] [Example 73, 4^4-cyclopropoxy-1^2-nitro-6-oxa-3,11-diaza-2(4,2)-pyrimidina-1(1,4),4(1,3)-dibenzenacyclododecaphan-12-one]	1000 to 10000	> 10000	1000 to 10000	101 to 1000	–
O=C1NCCCCOCc2cc(ccc2N2CCSCC2)Nc2nccc(n2)-c2ccc1cc2 [Example 6, 4^4-thiomorpholin-6-oxa-3,11-diaza-2(4,2)-pyrimidina-1(1,4),4(1,3)-dibenze-nacyclododecaphan-12-one]	101 to 1000	101 to 1000	11 to 100	–	11 to 100
CC1CCNC(=O)c2ccc(c(N)c2)-c2ccnc(n2)Nc2ccc(OCC3CCCOC3)c(c2)COC1 (centres unmarked) [Example 140, 1^2-amino-8-methyl-4^4-((tetrahydro-2H-pyran-3-yl)methoxy)-6-oxa-3,11-diaza-2(4,2)-pyrimidina-1(1,4),4(1,3)-dibenzenacyclododecaphan-12-one]	1000 to 10000	1000 to 10000	101 to 1000	< 10	–
Nc1cc2ccc1-c1ccnc(n1)Nc1ccc(N3CCOCC3)c(c1)COCCCCCNC2=O [Example 50, 1^2-amino-4^4-morpholin-6-oxa-3,12-diaza-2(4,2)-pyrimidina-1(1,4),4(1,3)-dibenzenacyclotridecaphan-13-one]	101 to 1000	11 to 100	11 to 100	< 10	–
O=C1NCCCCOCc2cc(ccc2OC2CCCC2)Nc2nccc(n2)-c2ccc1cc2F [Example 92, 4^4-cyclopentoxy-1^2-fluoro-6-oxa-3,11-diaza-2(4,2)-pyrimidina-1(1,4),4(1,3)-dibenzenacyclododecaphan-12-one]	1000 to 10000	1000 to 10000	101 to 1000	11 to 100	–
Nc1cc2ccc1-c1ccnc(n1)Nc1ccc(OCC3CCCOC3)c(c1)COc1ccc(cc1)NC2=O (centres unmarked) [Example 213, 1^2-amino-4^4-((tetrahydro-2H-pyran-3-yl)methoxy)-6-oxa-3,8-diaza-2(4,2)-pyrimidina-1,7(1,4),4(1,3)-tri-benzenacyclononaphane-9-one]	1000 to 10000	> 10000	1000 to 10000	11 to 100	–
O=C1NCCCCOCc2cc(ccc2OC2CCOCC2)Nc2nccc(n2)-c2ccc1cc2[N+](=O)[O-] [Example 61, 1^2-nitro-4^4-(2H-tetrahydropyran-4-oxo)-6-oxa-3,11-diaza-2(4,2)-pyrimi-dina-1(1,4),4(1,3)-dibenzenacyclo-dodecaphan-12-one]	1000 to 10000	> 10000	1000 to 10000	101 to 1000	–
O=C1NCCCCOCc2cc(ccc2N2CCOCC2)Nc2nccc(n2)-c2ccc1c(F)c2 [Example 10, 1^3-fluoro-4^4-morpholin-6-oxa-3,11-diaza-2(4,2)-pyrimidina-1(1,4),4(1,3)-dibenzenacyclododecaphan-12-one]	11 to 100	11 to 100	< 10	< 10	–
COc1cc(C#N)cc(F)c1COc1ccc2cc1COCCCCNC(=O)c1ccc(c(N)c1)-c1ccnc(n1)N2 [Example 196, 4-(((1^2-amino-12-oxo-6-oxa-3,11-diaza-2(4,2)-pyrimidina-1(1,4),4(1,3)-dibenzenacyclododecaphan-4^4-yl)oxy)methyl)-3-fluoro-5-methoxy-benzonitrile]	1000 to 10000	1000 to 10000	101 to 1000	< 10	–
